Eleven compounds from ChEMBL document CHEMBL1201862, “PubChem BioAssay data set” (2004) can be followed below.

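Values below derive from 48-hour exposures of cells grown in 96-well plates, with endpoints linearly interpolated between the two concentrations bracketing the appropriate inhibition level. GI50: concentration for 50% inhibition of growth.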 Calls of active or inactive are those of the source. Rule as the data show it: active = GI50 up to about 1.1 µM and inactive = higher.

Among the test systems are 786-0; BT-549; CCRF-CEM; DU-145; Hs-578T; KM12; MDA-MB-231; MDA-MB-435; MDA-N; MOLT-4; PC-3; SF-268; SK-MEL-28; SNB-19; SW-620; T47D; UACC-257; K562; SNB-75.
Holding throughout (assay): inhibition of tumour cell growth, NCI panel, 48 h

Take `COC(=O)C1=COC2OC3CC1C2C(C)O3` (stereo unspecified): the GI50 with 786-0, with BT-549, with CCRF-CEM, with DU-145, in the assay with Hs-578T and in the assay with KM12 was > 100 µM (inactive) in each case. For the same compound, the GI50 in the assay on MDA-MB-231, with MDA-MB-435, with MDA-N, in the assay on MOLT-4, with PC-3 and with SF-268 was > 100 µM (inactive) in each case. Also, the GI50 with SK-MEL-28, with SNB-19, in the assay with SW-620, in the assay with T47D and with UACC-257 was > 100 µM (inactive) in each case.

Take `Cn1c2ncccc2n2c(=O)cc(O)cc12`: the GI50 in the assay on 786-0 is > 100 µM (inactive); in the assay with BT-549, 94.4 µM (inactive); in the assay with CCRF-CEM, > 100 µM (inactive); with DU-145 it was > 100 µM (inactive); with K562, > 100 µM (inactive); in the assay on KM12, 65.8 µM (inactive). Moreover, the GI50 in the assay on MDA-MB-231 was 32.4 µM (inactive); with MDA-MB-435, 53.3 µM (inactive); with MDA-N it was 81.1 µM (inactive); in the assay on MOLT-4, 20.7 µM (inactive); in the assay on PC-3, 56.4 µM (inactive); in the assay on SF-268, 54.2 µM (inactive). In addition, the GI50 was 89.3 µM (inactive) with SK-MEL-28; > 100 µM (inactive) with SNB-19; 24.4 µM (inactive) with SNB-75; 82.4 µM (inactive) with SW-620; 24.1 µM (inactive) in the assay on T47D; > 100 µM (inactive) with UACC-257.

In the case of `CCOC(=O)CCC(NC(=O)c1ccc(Nc2nc3cc(C(F)(F)F)ccc3nc2C(=O)OCC)cc1)C(=O)OCC` (stereo unspecified), the GI50 with 786-0 is 2.44 µM (inactive); in the assay with BT-549 it was 16.3 µM (inactive); with CCRF-CEM, > 100 µM (inactive); in the assay with DU-145, 78.9 µM (inactive); in the assay with K562, 95.3 µM (inactive); with KM12 it was > 10 µM (inactive). For the same compound, the GI50 is 12.5 µM (inactive) with MDA-MB-231; 6.87 µM (inactive) in the assay with MDA-MB-435; 6.9 µM (inactive) in the assay with MDA-N; > 100 µM (inactive) in the assay with MOLT-4; 9.55 µM (inactive) with PC-3; 14.1 µM (inactive) with SF-268. For the same compound, the GI50 in the assay with SK-MEL-28 was 12.1 µM (inactive); with SNB-19, 10.7 µM (inactive); with SW-620, 18.6 µM (inactive); in the assay with T47D it was 6.25 µM (inactive); with UACC-257 it was 11 µM (inactive).

`COc1ccc(C(CC(=O)c2cccs2)C(=O)c2ccc3c(c2)OCO3)cc1` (stereo unspecified): the GI50 in the assay on CCRF-CEM, in the assay with DU-145, in the assay with Hs-578T, in the assay on K562, in the assay on KM12 and in the assay on MDA-MB-231 was > 100 µM (inactive) each time. The GI50 in the assay on MDA-MB-435, in the assay with MDA-N, in the assay with MOLT-4, in the assay with PC-3, in the assay on SF-268 and in the assay with SK-MEL-28 was > 100 µM (inactive) throughout. Also, the GI50 with SNB-75 is > 100 µM (inactive); with SW-620 it was > 100 µM (inactive); in the assay with T47D it was 69.5 µM (inactive); in the assay on UACC-257, > 100 µM (inactive).

As for `O=C1Nc2ccccc2/C1=N/NC(=S)Nc1ccccc1Cl`, the GI50 is 1.77 µM (inactive) in the assay on 786-0; 0.724 µM (active) in the assay with CCRF-CEM; 9.27 µM (inactive) with DU-145; 2.67 µM (inactive) in the assay on Hs-578T; 1.54 µM (inactive) with K562; 1.98 µM (inactive) in the assay on KM12. The GI50 is 11.3 µM (inactive) with MDA-MB-231; 10.8 µM (inactive) in the assay on MDA-MB-435; 20.6 µM (inactive) in the assay on MDA-N; 1.43 µM (inactive) with MOLT-4; 5.93 µM (inactive) in the assay with PC-3; 0.706 µM (active) in the assay with SF-268. The GI50 in the assay with SK-MEL-28 was 12.2 µM (inactive); with SNB-19 it was 4.84 µM (inactive); in the assay on SNB-75, 2.82 µM (inactive); in the assay with SW-620 it was 5.9 µM (inactive); in the assay with T47D, 11.6 µM (inactive); with UACC-257, 2 µM (inactive).

With `O=C1c2ccccc2C(=O)c2c(OCCOCCO)cccc21`, the GI50 in the assay on 786-0 was > 100 µM (inactive); in the assay on BT-549 it was > 100 µM (inactive); in the assay on DU-145 it was > 100 µM (inactive); with Hs-578T it was 20.5 µM (inactive); with K562, > 100 µM (inactive); in the assay on KM12, 46.6 µM (inactive). The GI50 was 0.935 µM (active) in the assay on MDA-MB-231; > 100 µM (inactive) with MDA-MB-435; 58.3 µM (inactive) with MOLT-4; 38.1 µM (inactive) with PC-3; 44.9 µM (inactive) in the assay with SF-268; > 100 µM (inactive) with SK-MEL-28. Also, the GI50 in the assay with SNB-19 was > 100 µM (inactive); in the assay on SNB-75 it was > 100 µM (inactive); with SW-620, 57.5 µM (inactive); in the assay with T47D, 49.4 µM (inactive); in the assay on UACC-257, > 100 µM (inactive).

Take `COc1ccc(-c2cc(O)c3c(C)cc(C)nc3n2)cc1`: the GI50 in the assay on BT-549 is 26.4 µM (inactive); in the assay on CCRF-CEM it was 16.9 µM (inactive); in the assay on DU-145 it was 48.4 µM (inactive); in the assay with Hs-578T, 27.7 µM (inactive); in the assay with K562, 23 µM (inactive); in the assay on KM12 it was 34.8 µM (inactive). For the same compound, the GI50 in the assay on MDA-MB-231 was 17.7 µM (inactive); in the assay on MOLT-4, 16 µM (inactive); in the assay with SF-268, 53 µM (inactive); with SK-MEL-28, 47.9 µM (inactive); in the assay on SNB-19, 49.4 µM (inactive); in the assay with SW-620 it was 38.9 µM (inactive). In addition, the GI50 in the assay with T47D is 28.2 µM (inactive); with UACC-257, 25.9 µM (inactive).

As to `CN1CC(c2ccccc2)N(CCCCN2CC(c3ccccc3)N(C)CC2c2ccccc2)CC1c1ccccc1` (stereo unspecified), the GI50 in the assay on 786-0 is 73.5 µM (inactive); with BT-549, 37 µM (inactive); in the assay with CCRF-CEM it was 20.9 µM (inactive); in the assay with DU-145 it was 36.2 µM (inactive); with Hs-578T, 73.1 µM (inactive); in the assay with K562, 19.3 µM (inactive). In addition, the GI50 with KM12 was 50.5 µM (inactive); with MDA-MB-231, 58.7 µM (inactive); in the assay with MDA-MB-435, 36.1 µM (inactive); with MDA-N, 32.1 µM (inactive); in the assay with MOLT-4, 23.2 µM (inactive); in the assay on PC-3, 18.2 µM (inactive). Further, the GI50 with SF-268 was > 100 µM (inactive); in the assay with SK-MEL-28, > 100 µM (inactive); in the assay on SNB-19, 54.7 µM (inactive); in the assay with SNB-75 it was 29.4 µM (inactive); with SW-620, 35.2 µM (inactive); in the assay on UACC-257, 13.5 µM (inactive).

Regarding `C=C(Nc1ccc([N+](=O)[O-])cc1[N+](=O)[O-])c1c/c(=N\NC(N)=S)c2ccccc2o1`, the GI50 is 66.8 µM (inactive) with 786-0; > 100 µM (inactive) with BT-549; 41.9 µM (inactive) with CCRF-CEM; > 100 µM (inactive) in the assay with DU-145; > 100 µM (inactive) in the assay with Hs-578T; 59.4 µM (inactive) in the assay on KM12. In addition, the GI50 is 26.8 µM (inactive) in the assay with MDA-MB-231; 81.5 µM (inactive) in the assay on MDA-MB-435; > 100 µM (inactive) in the assay on MDA-N; 42.4 µM (inactive) in the assay with MOLT-4; 26.1 µM (inactive) in the assay on PC-3; > 100 µM (inactive) with SF-268. In addition, the GI50 in the assay with SK-MEL-28 was > 100 µM (inactive); in the assay on SNB-19, 53 µM (inactive); in the assay on SNB-75, 74.8 µM (inactive); in the assay on SW-620, 39.8 µM (inactive); in the assay with UACC-257, 91.6 µM (inactive).

As to `CCOP(=O)(OCC)C(Cc1ccc(OC)c(OC)c1)N=C(c1ccccc1)c1ccccc1` (stereo unspecified), the GI50 in the assay with BT-549 was > 100 µM (inactive); in the assay on CCRF-CEM, 24 µM (inactive); in the assay on DU-145 it was 37.2 µM (inactive); in the assay on K562, < 0.01 µM (active); in the assay with KM12 it was 36.4 µM (inactive); in the assay on MDA-MB-231, 42.3 µM (inactive). Also, the GI50 in the assay with MDA-MB-435 is 71 µM (inactive); in the assay on MDA-N, 59.8 µM (inactive); with PC-3 it was 32.4 µM (inactive); in the assay with SF-268 it was > 100 µM (inactive); with SK-MEL-28 it was 45.3 µM (inactive); in the assay with SNB-19, 63 µM (inactive). The GI50 in the assay on SNB-75 was 27.5 µM (inactive); in the assay on SW-620, 47.6 µM (inactive); in the assay on T47D it was 20.5 µM (inactive); in the assay on UACC-257, 56.8 µM (inactive).

Turning to `COc1ccc(OC)c2c1C(=O)C(Cl)=C(N1CCN(CCOCCO)CC1)C2=O`, the GI50 is 5.78 µM (inactive) in the assay with 786-0; 14.8 µM (inactive) with BT-549; 2.72 µM (inactive) in the assay with CCRF-CEM; 18.6 µM (inactive) in the assay on DU-145; 16.1 µM (inactive) in the assay with Hs-578T; 1.91 µM (inactive) in the assay with K562. Further, the GI50 in the assay with KM12 was 20.5 µM (inactive); in the assay with MDA-MB-231, 13.9 µM (inactive); in the assay with MDA-MB-435, 14.4 µM (inactive); with MOLT-4, 4.32 µM (inactive); in the assay on PC-3, 6.37 µM (inactive); in the assay on SF-268 it was 13.6 µM (inactive). The GI50 in the assay with SK-MEL-28 is 16.1 µM (inactive); in the assay on SNB-19, 16 µM (inactive); in the assay on SNB-75, 15.9 µM (inactive); in the assay on SW-620, 8.85 µM (inactive); in the assay on T47D it was 4.65 µM (inactive); in the assay with UACC-257, 17.3 µM (inactive).
